± gives the expanded uncertainty stated by the source.
Experiment: molar heat capacity at constant pressure; xn = mol fraction of the nth substance listed
Settings: 101 kPa, Liquid, Small sample (50 mg) DSC

NCCO [2-aminoethan-1-ol] + O
Settings	molar heat capacity at constant pressure [J/K/mol]
207.9 K, x1 = 0.73	113.75 ± 23
210.55 K, x1 = 0.19	71 ± 14
211.06 K, x1 = 0.31	79.98 ± 3.5
211.07 K, x1 = 0.23	73.71 ± 3.1
212.29 K, x1 = 0.23	70.92 ± 14
212.29 K, x1 = 0.31	77.16 ± 15
212.64 K, x1 = 0.73	114.74 ± 23
214.38 K, x1 = 0.23	74.55 ± 3.1
214.38 K, x1 = 0.31	80.61 ± 3.5
215.29 K, x1 = 0.19	72.31 ± 14
217.03 K, x1 = 0.23	72.04 ± 15
217.03 K, x1 = 0.31	78.1 ± 16
217.38 K, x1 = 0.73	115.23 ± 23
220.03 K, x1 = 0.19	73.62 ± 15
221.01 K, x1 = 0.31	81.87 ± 3.5
221.76 K, x1 = 0.23	73.15 ± 15
221.77 K, x1 = 0.31	79.36 ± 16
222.11 K, x1 = 0.73	115.72 ± 23
224.33 K, x1 = 0.31	82.81 ± 3.5
224.77 K, x1 = 0.19	74.66 ± 15
226.51 K, x1 = 0.23	74.27 ± 15
226.52 K, x1 = 0.31	80.3 ± 16
226.86 K, x1 = 0.73	116.22 ± 23
229.51 K, x1 = 0.19	75.97 ± 15
230.97 K, x1 = 0.23	80.69 ± 3.4
230.97 K, x1 = 0.31	84.38 ± 3.5
231.24 K, x1 = 0.23	75.67 ± 15
231.25 K, x1 = 0.31	81.24 ± 16
231.6 K, x1 = 0.73	116.22 ± 23
234.25 K, x1 = 0.19	77.02 ± 15
234.28 K, x1 = 0.31	85.32 ± 3.8
234.29 K, x1 = 0.23	81.25 ± 3.4
235.99 K, x1 = 0.23	76.78 ± 15
236 K, x1 = 0.31	82.81 ± 17
236.34 K, x1 = 0.73	116.71 ± 23
238.99 K, x1 = 0.19	78.07 ± 16
240.72 K, x1 = 0.23	78.18 ± 16
240.73 K, x1 = 0.31	84.06 ± 17
240.93 K, x1 = 0.23	82.93 ± 3.6
240.93 K, x1 = 0.31	87.2 ± 3.8
241.08 K, x1 = 0.73	118.2 ± 24
241.4 K, x1 = 0.19	78.86 ± 3.4
243.73 K, x1 = 0.19	79.12 ± 16
244.25 K, x1 = 0.23	84.04 ± 3.6
244.25 K, x1 = 0.31	88.14 ± 3.8
244.73 K, x1 = 0.19	80.17 ± 3.4
245.47 K, x1 = 0.23	79.57 ± 16
245.47 K, x1 = 0.31	85.63 ± 17
245.83 K, x1 = 0.73	120.18 ± 24
247.57 K, x1 = 0.23	85.16 ± 3.6
247.57 K, x1 = 0.31	89.08 ± 3.8
247.58 K, x1 = 0.19	81.21 ± 3.4
248.48 K, x1 = 0.19	80.17 ± 16
250.22 K, x1 = 0.23	80.69 ± 16
250.23 K, x1 = 0.31	86.57 ± 17
250.58 K, x1 = 0.73	122.15 ± 25
250.9 K, x1 = 0.23	86.28 ± 3.6
250.9 K, x1 = 0.31	90.02 ± 3.8
251.37 K, x1 = 0.19	82.79 ± 3.4
253.23 K, x1 = 0.19	80.95 ± 16
254.22 K, x1 = 0.31	91.28 ± 3.8
254.23 K, x1 = 0.23	87.11 ± 3.6
254.7 K, x1 = 0.19	84.1 ± 3.7
254.97 K, x1 = 0.23	82.37 ± 16
254.98 K, x1 = 0.31	88.14 ± 18
255.33 K, x1 = 0.73	124.13 ± 25
257.98 K, x1 = 0.19	81.74 ± 17
259.72 K, x1 = 0.23	83.48 ± 17
259.72 K, x1 = 0.31	89.39 ± 18
260.08 K, x1 = 0.73	126.11 ± 25
260.88 K, x1 = 0.23	89.07 ± 3.9
260.88 K, x1 = 0.31	93.16 ± 4.1
261.35 K, x1 = 0.19	86.45 ± 3.7
262.73 K, x1 = 0.19	82.79 ± 17
264.2 K, x1 = 0.23	90.18 ± 3.9
264.2 K, x1 = 0.31	94.1 ± 4.1
264.47 K, x1 = 0.23	84.88 ± 17
264.48 K, x1 = 0.31	90.96 ± 18
264.67 K, x1 = 0.19	87.5 ± 3.7
264.83 K, x1 = 0.73	128.09 ± 26
267.48 K, x1 = 0.19	83.57 ± 17
269.23 K, x1 = 0.23	86.28 ± 17
269.23 K, x1 = 0.31	92.22 ± 19
269.58 K, x1 = 0.73	130.07 ± 26
270.7 K, x1 = 0.73	140.45 ± 5.9
270.86 K, x1 = 0.23	91.58 ± 3.9
270.86 K, x1 = 0.31	95.98 ± 4.1
271.34 K, x1 = 0.19	89.86 ± 3.9
272.24 K, x1 = 0.19	84.36 ± 17
274.02 K, x1 = 0.23	87.67 ± 18
274.02 K, x1 = 0.31	93.79 ± 19
274.07 K, x1 = 0.73	140.95 ± 5.9
274.23 K, x1 = 0.23	92.42 ± 3.9
274.23 K, x1 = 0.31	96.61 ± 4.1
274.39 K, x1 = 0.73	132.04 ± 27
274.73 K, x1 = 0.19	90.65 ± 3.9
277.12 K, x1 = 0.19	84.88 ± 17
278.94 K, x1 = 0.23	88.79 ± 18
278.94 K, x1 = 0.31	95.04 ± 19
279.3 K, x1 = 0.73	133.53 ± 27
280.95 K, x1 = 0.73	141.44 ± 5.9
281.11 K, x1 = 0.23	93.26 ± 3.9
281.11 K, x1 = 0.31	97.86 ± 4.1
281.61 K, x1 = 0.19	91.69 ± 3.9
282.05 K, x1 = 0.19	85.67 ± 17
283.85 K, x1 = 0.23	89.91 ± 18
283.85 K, x1 = 0.31	96.29 ± 19
284.22 K, x1 = 0.73	134.02 ± 27
284.4 K, x1 = 0.73	141.44 ± 5.9
284.56 K, x1 = 0.23	93.26 ± 3.9
284.56 K, x1 = 0.31	97.86 ± 4.1
285.05 K, x1 = 0.19	91.96 ± 3.9

Source: the NIST ThermoML archive (doi:10.1016/j.tca.2015.02.020)
